Test results from patent US20210047324A1 (Aptinyx Inc., priority 2018, published 2021).
Read-outs that look alike come from different tables or passages of the source.

What was measured:
[1] = Microsomal stability (Rat); assay type: in vitro ADME; settings: after 60 minutes
Experimental: (§1) Microsomal stability of disclosed compounds was investigated. The following table indicates the percent of compound remaining after 60 minutes.

[2] = IV pharmacokinetics in Sprague Dawley rats; assay type: in vivo; settings: rat, 2 mg/kg, normal saline; for Vd: read-out: Vss
Experimental: Sprague Dawley rats were dosed intravenously using a normal saline formulation containing 2 mg/kg of the compounds identified in the below table. The table below summarizes the results of the IV pharmacokinetics.

NMDAR2C = target: T1, NMDAR2C (Homo sapiens, UniProt Q14957); assay: NMDAR agonist assay, [3H]MK-801 binding, NMDAR2C expressing HEK cell membranes; assay type: biochemical; settings: 50 μM glutamate; for EC50: read-out: NMDAR2C B: log EC50 (converted)
T1 construct: expressed in transfected cells; host or cells: HEK cells (membrane extract)
Experimental: (§2) Assays were conducted as described by Moskal et al., “GLYX-13: a monoclonal antibody-derived peptide that acts as an N-methyl-D-aspartate receptor modulator,” Neuropharmacology, 49, 1077-87, 2005. These studies were designed to determine if the test compounds act to facilitate NMDAR activation in NMDAR2A, NMDAR2B, NMDAR2C or NMDAR2D expressing HEK cell membranes as measured by increases in [^3H]MK-801 binding.
(§3) In the assay, 300 μg of NMDAR expressing HEK cell membrane extract protein was preincubated for 15 minutes at […] in the presence of saturating concentrations of glutamate (50 μM) and varying concentrations of test compound (1×10^−15M-1×10^−7M), or 1 mM glycine. Following the addition of 0.3 μCi of [3H]MK-801 (22.5 Ci/mmol), reactions were again incubated for 15 minutes at 25° C. (nonequilibrium conditions). Bound and free [3H]MK-801 were separated via rapid filtration using a Brandel apparatus.
(§4) In analyzing the data, the DPM (disintegrations per minute) of [3H]MK-801 remaining on the filter were measured for each concentration of test compound or for 1 mM glycine. The DPM values for each concentration of a ligand (N=2) were averaged. The baseline value was determined from the best fit curve of the DPM values modeled using the GraphPad program and the log(agonist) vs. response (three parameters) algorithm was then subtracted from all points in the dataset. The % maximal [^3H]MK-801 binding was then calculated relative to that of 1 mM glycine: all baseline subtracted DPM values were divided by the average value for 1 mM glycine. The EC50 and % maximal activity were then obtained from the best fit curve of the % maximal [3H]MK-801 binding data modelled using the GraphPad program and the log(agonist) vs. response (three parameters) algorithm.
(§5) The tables below summarize the results for the wild type […] NMDAR2A, NMDAR2B, NMDAR2C, and NMDAR2D, and whether the compound is not an agonist (−), is an agonist (+), or is a strong agonist (++), where column A is based on the % maximal [3H]MK-801 binding relative to 1 mM glycine (−=0; <100%=+; and >100%=++); and column B is based on log EC50 values (0=−; ≥1×10^−9 M (e.g., −8)=+; and <1×10^−9 M (e.g., −10)=++).

NMDAR2D [3] = target: T2, NMDAR2D (Homo sapiens, UniProt O15399); assay: NMDAR agonist assay, [3H]MK-801 binding, NMDAR2D expressing HEK cell membranes; assay type: biochemical; settings: 50 μM glutamate
T2 construct: expressed in transfected cells; host or cells: HEK cells (membrane extract)
Experimental: as §2, §3, §4, §5

NMDAR2D [4] = target: T3, NMDAR2D (Homo sapiens, UniProt O15399+Q05586); assay: as above; assay type: biochemical; settings: 50 μM glutamate; read-out: NMDAR2D B: log EC50 (converted)
T3 construct: expressed in transfected cells; host or cells: HEK cells (membrane extract)
Experimental: as §2, §3, §4, §5

NMDAR2B = target: T4, NMDAR2B (Homo sapiens, UniProt Q13224); assay: NMDAR agonist assay, [3H]MK-801 binding, NMDAR2B expressing HEK cell membranes; assay type: biochemical; settings: 50 μM glutamate; for EC50: read-out: NMDAR2B B: log EC50 (converted); for Emax: read-out: NMDAR2B A: % maximal [3H]MK-801 binding relative to 1 mM glycine
T4 construct: expressed in transfected cells; host or cells: HEK cells (membrane extract)
Method in brief: (§6)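 Membranes from HEK cells (300 μg protein) preincubated 15 min with 50 μM glutamate plus compound (1×10^−15–1×10^−7 M) or 1 mM glycine, then with 0.3 μCi [3H]MK-801 for 15 min at 25° C. (nonequilibrium); filter-bound DPM, baseline-subtracted, expressed as % of 1 mM glycine; EC50 and % maximum from three-parameter fit.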

Sprague Dawley rats = assay: Porsolt forced swim test; assay type: in vivo; settings: 0.1 mg/kg
Experimental: A non-clinical in vivo pharmacology study (Porsolt assay) was performed to measure antidepressant-like effects. The study allowed for the evaluation of the effects of each compound on the Porsolt forced swim test as assessed by the rats' response (reduced floating time) during a 5-minute swimming test.
Male 2-3 month old Sprague Dawley rats were used (Harlan, Indianapolis, Ind.). Rats were housed in Lucite cages with aspen wood chip bedding, maintained on a 12:12 light:dark cycle (lights on at 5 AM), and given ad libitum access to Purina lab chow (USA) and tap water throughout the study.
The Porsolt forced swim test adapted for use in rats was performed as described by Burgdorf et al., (The long-lasting antidepressant effects of rapastinel (GLYX-13) are associated with a metaplasticity process in the medial prefrontal cortex and hippocampus. Neuroscience 308:202-211, 2015). Animals were placed in a 46 cm tall×20 cm in diameter clear glass tube filled to 30 cm with tap water (23±1° C.) for 15 min on the first day (habituation) and 5 min on the subsequent test day. Animals were tested 1 h or 24 h post-dosing with the test compounds or vehicle control (0.5% sodium carboxymethyl cellulose in 0.9% sterile saline). A subset of compounds tested at 1 h post-dosing was tested again 1 wk post-dosing. Animals received a 15 min habituation session 1 day before the first 5 min test. Water was changed after every other animal. Animals were videotaped, and floating time as defined as the minimal amount of effort required to keep the animals head above water was scored offline by a blinded experimenter with high inter-rater reliability (Pearson's r >0.9).

Plasma stability (Human) = assay type: in vitro ADME; settings: after 60 minutes
Experimental: (§7) Plasma stability of disclosed compounds was investigated. The following table indicates the percent of compound remaining after 60 minutes.

NMDAR2A = target: T5, NMDAR2A (Homo sapiens, UniProt Q12879); assay: NMDAR agonist assay, [3H]MK-801 binding, NMDAR2A expressing HEK cell membranes; assay type: biochemical; set-up: key to NMDAR2A B: log EC50: 0=−; ≥1×10^−9 M (e.g., −8)=+; <1×10^−9 M (e.g., −10)=++; settings: 50 μM glutamate; for EC50: read-out: NMDAR2A B: log EC50 (converted); for Emax: 0.25 h, read-out: NMDAR2A A: % maximal [3H]MK-801 binding relative to 1 mM glycine
T5 construct: expressed in transfected cells; host or cells: HEK cells (membrane extract)
Method in brief: as §6

Plasma stability (Rat) = assay type: in vitro ADME; settings: after 60 minutes
Experimental: as §7

[5] = Microsomal stability (Human); assay type: in vitro ADME; settings: after 60 minutes
Experimental: as §1

[6] = Oral pharmacokinetics in Sprague Dawley rats (plasma, brain, CSF); assay type: in vivo; settings: rat
Experimental: In another experiment, Sprague Dawley rats were dosed per os (oral gavage) using a normal saline formulation containing 10 mg/kg of the compounds identified in the table below. Plasma, brain, and CSF samples were analyzed at various time points over a 24 hour period. The table below summarizes the results of the oral pharmacokinetics, where the first three values (Tmax, Cmax and AUClast) are plasma values.

[7] = Sprague-Dawley, in vivo, iv, read-out: Cmax
[8] = Sprague-Dawley, po, per os, 10 mg/kg, plasma, read-out: Tmax
[9] = Sprague-Dawley, plasma, po, 10 mg/kg, per os
[10] = Sprague-Dawley, plasma, po, 10 mg/kg, per os 10 mg/kg
[11] = Sprague-Dawley, plasma, po, 10 mg/kg, per os, 10 mg/kg, plasma, read-out: Cmax

T3 sequence (O15399 28-1336, species assumed, other chains not shown): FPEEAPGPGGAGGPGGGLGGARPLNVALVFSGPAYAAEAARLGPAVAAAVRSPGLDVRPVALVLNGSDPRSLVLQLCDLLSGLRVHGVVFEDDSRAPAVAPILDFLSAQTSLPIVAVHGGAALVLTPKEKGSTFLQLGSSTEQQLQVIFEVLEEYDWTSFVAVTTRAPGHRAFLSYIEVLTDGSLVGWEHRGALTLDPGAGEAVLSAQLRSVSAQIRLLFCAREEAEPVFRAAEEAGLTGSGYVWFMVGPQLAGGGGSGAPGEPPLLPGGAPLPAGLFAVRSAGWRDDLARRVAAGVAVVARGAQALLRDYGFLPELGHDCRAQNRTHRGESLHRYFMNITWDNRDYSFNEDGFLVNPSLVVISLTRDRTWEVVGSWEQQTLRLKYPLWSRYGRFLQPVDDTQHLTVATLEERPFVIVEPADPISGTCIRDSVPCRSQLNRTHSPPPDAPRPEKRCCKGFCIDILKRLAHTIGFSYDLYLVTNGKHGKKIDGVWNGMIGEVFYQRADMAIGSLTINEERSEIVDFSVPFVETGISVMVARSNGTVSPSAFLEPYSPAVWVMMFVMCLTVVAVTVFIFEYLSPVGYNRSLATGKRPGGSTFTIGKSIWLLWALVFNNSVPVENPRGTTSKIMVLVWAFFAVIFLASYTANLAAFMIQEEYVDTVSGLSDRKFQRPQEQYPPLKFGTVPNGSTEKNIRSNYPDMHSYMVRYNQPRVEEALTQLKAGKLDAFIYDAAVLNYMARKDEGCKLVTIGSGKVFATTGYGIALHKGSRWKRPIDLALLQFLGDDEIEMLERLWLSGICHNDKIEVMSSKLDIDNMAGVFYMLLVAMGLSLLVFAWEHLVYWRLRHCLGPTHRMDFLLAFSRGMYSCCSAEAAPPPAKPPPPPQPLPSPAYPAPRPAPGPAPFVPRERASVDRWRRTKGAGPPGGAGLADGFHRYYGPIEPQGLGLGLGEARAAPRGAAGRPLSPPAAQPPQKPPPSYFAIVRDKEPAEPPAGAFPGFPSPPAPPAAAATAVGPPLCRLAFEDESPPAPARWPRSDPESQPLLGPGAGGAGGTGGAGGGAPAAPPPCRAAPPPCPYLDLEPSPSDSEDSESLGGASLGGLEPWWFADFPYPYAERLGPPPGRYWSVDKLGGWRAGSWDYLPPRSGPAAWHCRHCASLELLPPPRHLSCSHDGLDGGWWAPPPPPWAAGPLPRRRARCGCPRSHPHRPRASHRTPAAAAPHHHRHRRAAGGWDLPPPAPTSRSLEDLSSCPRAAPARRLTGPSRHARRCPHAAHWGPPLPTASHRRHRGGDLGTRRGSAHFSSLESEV
T2 sequence (O15399 28-1336, species assumed, other chains not shown): as above
T4 sequence (Q13224 27-1484, species assumed, other chains not shown): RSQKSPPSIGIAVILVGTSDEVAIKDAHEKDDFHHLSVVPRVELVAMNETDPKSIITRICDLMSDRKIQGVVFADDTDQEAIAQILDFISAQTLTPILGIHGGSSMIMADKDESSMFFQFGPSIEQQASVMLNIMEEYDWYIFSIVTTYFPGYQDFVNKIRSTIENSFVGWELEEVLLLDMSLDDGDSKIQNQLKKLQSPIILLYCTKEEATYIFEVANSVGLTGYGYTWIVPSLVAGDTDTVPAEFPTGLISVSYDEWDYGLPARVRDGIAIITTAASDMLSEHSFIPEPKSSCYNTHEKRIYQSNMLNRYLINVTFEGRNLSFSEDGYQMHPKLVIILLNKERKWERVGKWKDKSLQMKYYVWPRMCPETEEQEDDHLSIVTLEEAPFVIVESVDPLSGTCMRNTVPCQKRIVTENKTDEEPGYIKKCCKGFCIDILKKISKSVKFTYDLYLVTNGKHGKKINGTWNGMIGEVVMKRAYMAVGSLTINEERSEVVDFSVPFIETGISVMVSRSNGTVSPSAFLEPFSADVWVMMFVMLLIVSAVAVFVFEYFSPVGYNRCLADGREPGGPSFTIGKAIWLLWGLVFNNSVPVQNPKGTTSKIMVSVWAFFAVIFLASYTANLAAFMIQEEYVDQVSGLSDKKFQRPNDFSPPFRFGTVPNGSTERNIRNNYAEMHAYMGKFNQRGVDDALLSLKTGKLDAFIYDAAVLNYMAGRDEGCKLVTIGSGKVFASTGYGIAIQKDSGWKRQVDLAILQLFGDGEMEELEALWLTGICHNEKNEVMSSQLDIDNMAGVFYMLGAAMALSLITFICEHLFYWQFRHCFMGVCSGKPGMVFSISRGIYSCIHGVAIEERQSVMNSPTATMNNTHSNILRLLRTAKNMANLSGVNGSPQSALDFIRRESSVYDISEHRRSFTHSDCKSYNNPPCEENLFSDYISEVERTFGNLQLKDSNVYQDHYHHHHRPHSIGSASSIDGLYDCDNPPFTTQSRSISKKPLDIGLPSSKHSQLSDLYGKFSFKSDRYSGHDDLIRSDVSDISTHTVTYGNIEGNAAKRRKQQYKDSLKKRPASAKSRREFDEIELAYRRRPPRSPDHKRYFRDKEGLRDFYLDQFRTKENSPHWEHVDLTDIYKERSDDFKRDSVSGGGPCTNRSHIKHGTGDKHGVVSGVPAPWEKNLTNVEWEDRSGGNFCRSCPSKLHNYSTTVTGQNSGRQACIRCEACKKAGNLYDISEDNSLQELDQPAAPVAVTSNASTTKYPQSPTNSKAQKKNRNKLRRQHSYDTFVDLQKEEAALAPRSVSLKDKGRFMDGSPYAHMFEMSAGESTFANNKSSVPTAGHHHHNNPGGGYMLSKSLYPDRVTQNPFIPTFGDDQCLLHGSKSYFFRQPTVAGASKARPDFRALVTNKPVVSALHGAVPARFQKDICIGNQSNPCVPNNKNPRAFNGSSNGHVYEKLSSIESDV
T1 sequence (Q14957 20-1233, species assumed, other chains not shown): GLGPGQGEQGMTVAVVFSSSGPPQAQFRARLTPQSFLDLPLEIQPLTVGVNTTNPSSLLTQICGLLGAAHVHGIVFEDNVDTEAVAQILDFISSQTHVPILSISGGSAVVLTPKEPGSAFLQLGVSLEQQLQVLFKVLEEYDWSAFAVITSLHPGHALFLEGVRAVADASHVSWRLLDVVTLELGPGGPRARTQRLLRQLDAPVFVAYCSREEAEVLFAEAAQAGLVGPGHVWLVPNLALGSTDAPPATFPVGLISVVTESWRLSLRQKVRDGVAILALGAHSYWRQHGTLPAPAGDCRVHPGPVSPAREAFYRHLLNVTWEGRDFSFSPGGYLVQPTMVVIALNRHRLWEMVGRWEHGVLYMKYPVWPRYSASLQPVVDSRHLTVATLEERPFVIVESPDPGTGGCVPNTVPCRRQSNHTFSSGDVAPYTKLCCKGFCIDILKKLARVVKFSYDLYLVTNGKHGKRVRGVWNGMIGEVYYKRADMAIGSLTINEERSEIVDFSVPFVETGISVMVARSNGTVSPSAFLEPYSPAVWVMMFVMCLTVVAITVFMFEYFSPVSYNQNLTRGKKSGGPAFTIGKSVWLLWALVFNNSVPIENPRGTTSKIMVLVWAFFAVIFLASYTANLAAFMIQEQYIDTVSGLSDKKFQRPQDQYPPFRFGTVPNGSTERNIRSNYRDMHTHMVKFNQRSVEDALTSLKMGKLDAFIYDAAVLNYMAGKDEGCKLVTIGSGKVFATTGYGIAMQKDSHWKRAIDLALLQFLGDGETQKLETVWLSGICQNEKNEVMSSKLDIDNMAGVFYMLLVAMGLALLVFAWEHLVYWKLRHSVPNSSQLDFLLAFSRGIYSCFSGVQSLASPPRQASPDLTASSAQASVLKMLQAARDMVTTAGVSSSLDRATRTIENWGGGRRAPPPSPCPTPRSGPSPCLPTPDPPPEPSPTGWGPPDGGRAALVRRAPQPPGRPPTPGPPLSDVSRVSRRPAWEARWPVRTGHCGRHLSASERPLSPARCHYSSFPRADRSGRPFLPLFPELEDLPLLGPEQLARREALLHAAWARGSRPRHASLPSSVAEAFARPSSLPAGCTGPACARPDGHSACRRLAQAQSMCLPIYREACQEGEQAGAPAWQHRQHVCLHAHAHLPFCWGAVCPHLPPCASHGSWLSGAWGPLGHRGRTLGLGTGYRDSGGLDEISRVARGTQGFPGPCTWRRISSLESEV

SMILES	Microsomal (Rat): percent of compound remaining [1]	EC50 (NMDAR2C)	NMDAR2C A: % maximal [3H]MK-801 binding relative to 1 mM glycine (NMDAR2C)	NMDAR2D A: % maximal [3H]MK-801 binding relative to 1 mM glycine (NMDAR2D [3])	EC50 (NMDAR2D [4])	EC50 (NMDAR2B)	Plasma (Human): percent of compound remaining (Plasma stability (Human))	EC50 (NMDAR2A)	Emax (NMDAR2A; relative to 1 mM glycine)	Plasma (Rat): percent of compound remaining (Plasma stability (Rat))	Microsomal (Human): percent of compound remaining [5]	CSF Cmax ([6]; per os, 10 mg/kg)	Brain Cmax ([6]; per os, 10 mg/kg)	AUC(0-t) ([2]; Sprague-Dawley, in vivo, iv)	clearance ([2]; Sprague-Dawley, in vivo, iv)	half-life ([2]; Sprague-Dawley, in vivo, iv)	Cmax [2, 7]	Vd ([2]; Sprague-Dawley, in vivo, iv)	% reduction in float time (Sprague Dawley rats; 1 h post-dose)	Significance vs. vehicle (Sprague Dawley rats; 1 h post-dose)	also measured
CC(C)(C)OC(=O)N1CCCCCC12CNC2=O (single isomer, unassigned) [EI-1, tert-butyl 1-oxo-2,5-diazaspiro[3.6]decane-5-carboxylate]				+ (<100%=+)	< 1 nM			< 1 nM	< 100%												
O=C1NCCCC12CCCN2 (stereo not shown) [EU-2, 1,7-diazaspiro[4.5]decan-6-one]	94%	< 1 nM	+ (<100%=+)	++ (>100%=++)	< 1 nM	< 1 nM	74%			95%	100%	436.7 ng/mL	593.1 ng/mL	4000 ng·h/mL	8.79 mL/min/kg	96.6 min	2140 ng/mL	0.94 L/kg	55%	Yes	% reduction in float time (Sprague Dawley rats; 1 wk post-dose): 46%; Significance vs. vehicle (Sprague Dawley rats; 1 wk post-dose): Yes; NMDAR2A B: log EC50 (NMDAR2A): −; Tmax [6, 8]: 60 min; AUC(0-t) [6, 9]: 4430 ng·h/mL; bioavailability [6, 10]: 100%; Cmax [6, 11]: 1860 ng/mL
O=C1NCCCC[C@@]12CCCN2 [AU-2, (R)-1,7-diazaspiro[4.6]undecan-6-one]		< 1 nM	+ (<100%=+)	+ (<100%=+)	< 1 nM	< 1 nM			0%												Emax (NMDAR2B; relative to 1 mM glycine): < 100%; NMDAR2A B: log EC50 (NMDAR2A): −

More lines, main results first:

Microsomal (Rat): percent of compound remaining [1]	EC50 (NMDAR2C)	NMDAR2C A: % maximal [3H]MK-801 binding relative to 1 mM glycine (NMDAR2C)	NMDAR2D A: % maximal [3H]MK-801 binding relative to 1 mM glycine (NMDAR2D [3])	EC50 (NMDAR2D [4])	EC50 (NMDAR2B)	Plasma (Human): percent of compound remaining (Plasma stability (Human))	EC50 (NMDAR2A)	Emax (NMDAR2A; relative to 1 mM glycine)	Plasma (Rat): percent of compound remaining (Plasma stability (Rat))	Microsomal (Human): percent of compound remaining [5]	CSF Cmax ([6]; per os, 10 mg/kg)	Brain Cmax ([6]; per os, 10 mg/kg)	SMILES	AUC(0-t) ([2]; Sprague-Dawley, in vivo, iv)	clearance ([2]; Sprague-Dawley, in vivo, iv)	half-life ([2]; Sprague-Dawley, in vivo, iv)	Cmax [2, 7]	Vd ([2]; Sprague-Dawley, in vivo, iv)	% reduction in float time (Sprague Dawley rats; 1 h post-dose)	Significance vs. vehicle (Sprague Dawley rats; 1 h post-dose)	also measured
100%	< 1 nM	+ (<100%=+)	+ (<100%=+)	< 1 nM	< 1 nM	98%	< 1 nM	< 100%	94%	95%	1414.8 ng/mL	1457.4 ng/mL	CC(C)(C)OC(=O)N1CCCC12CCCNC2=O (single isomer, unassigned) [EV-1, tert-butyl 6-oxo-1,7-diazaspiro[4.5]decane-1-carboxylate]	1270 ng·h/mL	26.2 mL/min/kg	25.2 min	2730 ng/mL	0.72 L/kg	53%	Yes	Emax (NMDAR2B; relative to 1 mM glycine): < 100%; % reduction in float time (Sprague Dawley rats; 24 h post-dose): 45%; Significance vs. vehicle (Sprague Dawley rats; 24 h post-dose): Yes; Tmax [6, 8]: 15 min; AUC(0-t) [6, 9]: 2850 ng·h/mL; bioavailability [6, 10]: 45%; Cmax [6, 11]: 3690 ng/mL
91%	< 1 nM	+ (<100%=+)	+ (<100%=+)		< 1 nM	100%	< 1 nM		79%	79%	2324.1 ng/mL	1213 ng/mL	CC(C)(C)OC(=O)N1CCCC12CCCNC2=O (single isomer, unassigned) [EV-2, tert-butyl 6-oxo-1,7-diazaspiro[4.5]decane-1-carboxylate]						84%	Yes	AUClast [2]: 1138.1 ng·h/mL; Cl [2]: 28.4 mL/min/kg; Cmax [2]: 2608.4 ng/mL; T1/2 [2]: 24.6 min; Vss [2]: 0.88 L/kg; EC50 (NMDAR2D [3]; read-out: NMDAR2D B: log EC50 (converted)): < 1 nM; NMDAR2B A: % maximal [3H]MK-801 binding relative to 1 mM glycine (NMDAR2B; relative to 1 mM glycine): + (<100%=+); % reduction in float time (Sprague Dawley rats; 24 h post-dose): 76%; Significance vs. vehicle (Sprague Dawley rats; 24 h post-dose): Yes; NMDAR2A A: % maximal [3H]MK-801 binding relative to 1 mM glycine (NMDAR2A; relative to 1 mM glycine): + (<100%=+); % F ([6]; per os 10 mg/kg): 63%; AUC(0-last) ([6]; per os, 10 mg/kg, plasma): 3567.9 ng·h/mL; Cmax ([6]; per os, 10 mg/kg, plasma): 4346 ng/mL; Tmax ([6]; per os, 10 mg/kg, plasma): 15 min
